Columns and labels:
wheat crop plants = assay: Crop phytotoxicity comparison, post-emergence; details: for damage to the wheat crop compared to prior art compound C1: summary of Table B3
barley crop plants = assay: Crop phytotoxicity comparison, post-emergence; details: for damage to the barley crop compared to prior art compound C1: summary of Table B3
Lolium perenne (LOLPE) [1] = assay: Pre-emergence herbicidal glasshouse test; assay type: in vivo; details: 250 g/Ha, evaluated after 13 days
Text: (§1) Compounds are applied at 250 g/h. […] NT=not tested.

Avena fatua (AVEFA) [2] = assay: Pre-emergence herbicidal glasshouse test; assay type: in vivo; details: 250 g/Ha, evaluated after 13 days
Text: as §1

[3] = test system: Echinochloa crus-galli (ECHCG); assay: Pre-emergence herbicidal glasshouse test; assay type: in vivo; details: 250 g/Ha, evaluated after 13 days
Text: as §1

[4] = test system: Alopecurus myosuroides (ALOMY); assay: Pre-emergence herbicidal glasshouse test; assay type: in vivo; details: 250 g/Ha, evaluated after 13 days
Text: as §1

Setaria faberi (SETFA) [5] = assay: Pre-emergence herbicidal glasshouse test; assay type: in vivo; details: 250 g/Ha, evaluated after 13 days
Text: as §1

Lolium perenne (LOLPE) [6] = assay: Post-emergence herbicidal glasshouse test; assay type: in vivo; details: 250 g/Ha, evaluated after 13 days
Text: as §1

Avena fatua (AVEFA) [7] = assay: Post-emergence herbicidal glasshouse test; assay type: in vivo; details: 250 g/Ha, evaluated after 13 days
Text: as §1

[8] = test system: Echinochloa crus-galli (ECHCG); assay: Post-emergence herbicidal glasshouse test; assay type: in vivo; details: 250 g/Ha, evaluated after 13 days
Text: as §1

[9] = test system: Alopecurus myosuroides (ALOMY); assay: Post-emergence herbicidal glasshouse test; assay type: in vivo; details: 250 g/Ha, evaluated after 13 days
Text: as §1

Setaria faberi (SETFA) [10] = assay: Post-emergence herbicidal glasshouse test; assay type: in vivo; details: 250 g/Ha, evaluated after 13 days
Text: as §1

[11] = rate 60 g/ha + safener cloquintocet-mexyl (CQC) at 50 g/ha

SMILES | % phytotoxicity observed, Wheat (wheat crop plants; rate 30 g/ha) | % phytotoxicity observed, Wheat (wheat crop plants; rate 60 g/ha) | % phytotoxicity observed, Wheat (wheat crop plants; [11]) | damage to the wheat crop compared to prior art compound C1 (wheat crop plants) | % phytotoxicity observed, Barley (barley crop plants; rate 30 g/ha) | % phytotoxicity observed, Barley (barley crop plants; rate 60 g/ha) | damage to the barley crop compared to prior art compound C1 (barley crop plants) | percentage damage caused to the plant, LOLPE (Lolium perenne (LOLPE) [1]) | percentage damage caused to the plant, AVEFA (Avena fatua (AVEFA) [2]) | percentage damage caused to the plant, ECHCG [3] | percentage damage caused to the plant, ALOMY [4] | percentage damage caused to the plant, SETFA (Setaria faberi (SETFA) [5]) | percentage damage caused to the plant, LOLPE (Lolium perenne (LOLPE) [6]) | percentage damage caused to the plant, AVEFA (Avena fatua (AVEFA) [7]) | percentage damage caused to the plant, ECHCG [8] | percentage damage caused to the plant, ALOMY [9] | percentage damage caused to the plant, SETFA (Setaria faberi (SETFA) [10])
CC#Cc1cc(C)c(C2C(=O)CC3(CCN(S(C)(=N)=O)CC3)CC2=O)c(C)c1 (stereo not shown) [Compound A1, 9-(2,6-dimethyl-4-prop-1-ynyl-phenyl)-3-(methylsulfonimidoyl)-3-azaspiro[5.5]undecane-8,10-dione] | 0% | 0% | 0% | significantly less damaging | 0% | 0% | significantly less damaging | 5 (5=80-100%) | 5 (5=80-100%) | 5 (5=80-100%) | 5 (5=80-100%) | 5 (5=80-100%) | 5 (5=80-100%) | 5 (5=80-100%) | 5 (5=80-100%) | 5 (5=80-100%) | 5 (5=80-100%)
CC#Cc1cc(C)c(C2C(=O)CC3(CCN(S(=O)(=O)NC)CC3)CC2=O)c(C)c1 [Compound A3, 9-(2,6-dimethyl-4-prop-1-ynyl-phenyl)-N-methyl-8,10-dioxo-3-azaspiro[5.5]undecane-3-sulfonamide] | 0% | 0% | 0% | significantly less damaging | 0% | 0% | significantly less damaging | 5 (5=80-100%) | 5 (5=80-100%) | 5 (5=80-100%) | 5 (5=80-100%) | 5 (5=80-100%) | 5 (5=80-100%) | 5 (5=80-100%) | 5 (5=80-100%) | 5 (5=80-100%) | 5 (5=80-100%)
CC#Cc1cc(C)c(C2C(=O)CC3(CCOCC3)CC2=O)c(C)c1 [Compound C1, reference compound] | 40% | 70% | 60% |  | 80% | 90% |  |  |  |  |  |  |  |  |  |  | 
CC#Cc1cc(C)c(C2=C(OC(=O)OC)CC3(CCN(S(=O)(=O)N(C)C(=O)OC)CC3)CC2=O)c(C)c1 [Compound P4] |  |  |  |  |  |  |  | 5 (5=80-100%) | 5 (5=80-100%) | 5 (5=80-100%) | 5 (5=80-100%) | 5 (5=80-100%) | 5 (5=80-100%) | 5 (5=80-100%) | 5 (5=80-100%) | 5 (5=80-100%) | 5 (5=80-100%)
